From patent US10273224B2, “Substituted pyrimidine compounds, compositions and medicinal applications thereof” (JUBILANT BIOSYS LIMITED, priority 2013, dated 2019)
pIC50: −log10 of the molar value. Where a name gives a salt, the structure may show the parent alone.

Target: T1, EGFR (L858R & T790M) (Homo sapiens, UniProt P00533, L858R/T790M)
T1 construct: GST; purchased Proqinase
Test: EGFR (L858R & T790M) inhibition assay, HTRF method
Conditions: biochemical HTRF; EGFR (T790M/L858R) 2.5 nM, ATP 5 μM, 60 min room temperature
Protocol: Example 25: Biological Activity: EGFR T790M Assay Protocol
The objective of the experiment is to find the IC50 for the compounds using HTRF method.
Reagents for Enzyme Assay:
1. Enzyme Assay Buffer: 60 mM HEPES (pH 7.4), 50 mM NaCl, 20 mM MgCl2, 5 mM MnCl2, filter using 0.2 µm pore size, store at 4° C.
Supplements (add fresh to the enzyme buffer): Make 1M DTT stock, 5% BSA stock and 0.1M Na3OV4 stored at 4° C. Enzyme assay buffer 50 ml, 1 M DTT 100 μl, 5% BSA 500 μl, 0.1M Na3OV4 50 μl.
2. GST-hEGFR (L858R), active: EGFR (T790M/L858R), active (Proqinase), 3.6 μM stock; 2.5 nM in final assay.
3. Gastrin Precusor-Biotinylated: Gastrin precursor (Tyr87) biotinylated peptide (EEAY*GWM), Cell Signaling Tech 1310, Lot-7, Want final 0.5 μM in assay
4. ATP: 10 mM stock in 100 μl Enzyme assay buffer pH 7.4 prepared freshly, want 5 μM in final assay.
5. Test compounds: Dissolve powders in 100% DMSO to a final stock concentration of 10 mM (volume in μL to add for 10 mM=mg powder×10^5/MW). Final comp concentration in the assay plate is starting at 10 μM.
1. HTRF buffer: 50 mM Tris-HCl, pH-7.5, 100 mM NaCl, 0.1% BSA, 0.05% Tween20, 0.5 mM EDTA, filter using 0.2 µm pore size, store at 4° C.
Phycolink® Streptavidin-Allophycocyanin (SA-APC) Prozyme, Cat. #PJ25S, Lot #896 085, 2.06 mg/mL, APC concentration is 11.6 μM, streptavidin concentration is 15.5 μM. Want 12 nM final in assay (based on streptavidin concentration).
2. Europium-W1024-PT-66 Anti Phospho Tyrosine Antibody: Perkin Elmer (AD0068), monoclonal IgG1 that recognizes phospho tyrosine peptide 100 μg/ml stock. Want 0.1 nM final in assay.
• 1. Make the compound dilution by TECAN as per the above scheme. • 2. Add 16 μl of diluted compound to the assay plate by using TECAN • 3. Add 10 μl of enzyme mix to each well except mins. • 4. Add 20 μl of substrate and ATP mix into each well of the assay plate manually. • 5. Incubate the plate at room temperature for 60 min with shaking. • 6. Meanwhile prepare the HTRF mix and add 75 μl to the HTRF plate. • 7. When the incubation is over, transfer 10 μl of the reaction mixture to the HTRF assay plate and incubate for 30 min at room temperature with shaking. • 8. Take the reading in Pherastar (ext 337 nm, em 665 & 620 nm). • 9. Analyze the results using Graphpad prism after calculation the z factor, signal window and % inhibition to get the IC50.
Compounds having IC50<10 nM are designated as “A”; 10-100 nM are designated as “B”; and >100 nM as “C”.

T1 sequence (P00533 25-1210 T790M/L858R): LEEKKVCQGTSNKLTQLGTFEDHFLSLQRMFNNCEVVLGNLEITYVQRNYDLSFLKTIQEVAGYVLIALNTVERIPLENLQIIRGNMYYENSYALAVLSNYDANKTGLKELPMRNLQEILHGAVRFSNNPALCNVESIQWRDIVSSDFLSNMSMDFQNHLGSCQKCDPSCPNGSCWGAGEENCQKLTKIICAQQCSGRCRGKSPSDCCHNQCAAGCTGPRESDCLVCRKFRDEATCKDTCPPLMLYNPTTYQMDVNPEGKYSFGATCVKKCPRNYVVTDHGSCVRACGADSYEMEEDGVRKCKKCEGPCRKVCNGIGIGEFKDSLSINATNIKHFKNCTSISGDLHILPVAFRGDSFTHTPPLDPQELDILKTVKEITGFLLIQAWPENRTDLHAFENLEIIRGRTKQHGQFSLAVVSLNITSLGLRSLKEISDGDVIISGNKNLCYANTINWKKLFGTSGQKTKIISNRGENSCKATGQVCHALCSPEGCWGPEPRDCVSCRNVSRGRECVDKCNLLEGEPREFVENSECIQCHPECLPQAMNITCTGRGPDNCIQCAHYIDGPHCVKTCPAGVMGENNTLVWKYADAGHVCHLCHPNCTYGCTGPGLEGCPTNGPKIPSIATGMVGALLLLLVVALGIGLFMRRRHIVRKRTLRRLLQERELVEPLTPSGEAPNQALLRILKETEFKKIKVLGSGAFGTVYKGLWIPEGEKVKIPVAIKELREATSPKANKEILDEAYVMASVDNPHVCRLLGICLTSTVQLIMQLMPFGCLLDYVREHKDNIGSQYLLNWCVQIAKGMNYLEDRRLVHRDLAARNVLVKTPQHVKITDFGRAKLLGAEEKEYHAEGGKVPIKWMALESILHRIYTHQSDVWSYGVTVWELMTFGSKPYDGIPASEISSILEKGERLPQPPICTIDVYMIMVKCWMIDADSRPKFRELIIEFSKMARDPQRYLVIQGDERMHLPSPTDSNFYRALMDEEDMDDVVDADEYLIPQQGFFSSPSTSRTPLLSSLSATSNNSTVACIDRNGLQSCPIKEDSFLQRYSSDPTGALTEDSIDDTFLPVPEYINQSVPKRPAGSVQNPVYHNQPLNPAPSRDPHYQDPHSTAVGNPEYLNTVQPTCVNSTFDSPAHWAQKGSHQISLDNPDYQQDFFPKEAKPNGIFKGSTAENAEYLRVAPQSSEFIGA

pIC50	Structure (SMILES)
7.00 to 8.00	C=CC(=O)Nc1cccc(Nc2nc(Nc3cnn(C)c3)ncc2C)c1 [Compound I-15, N-(3-((5-methyl-2-((1-methyl-1H-pyrazol-4-yl)amino)pyrimidin-4-yl)amino)phenyl)acrylamide]
7.00 to 8.00	C=CC(=O)Nc1cccc(Nc2nc(Nc3cnn(CC4CC4)c3)ncc2Cl)c1 [Compound I-7, N-(3-((5-chloro-2-((1-(cyclopropylmethyl)-1H-pyrazol-4-yl)amino)pyrimidin-4-yl)amino)phenyl)acrylamide]
< 7.00	C=CC(=O)Nc1cccc(Nc2nc(Nc3cnn(C)c3)nc(C)c2Cl)c1 [Compound I-59, N-(3-((5-chloro-6-methyl-2-((1-methyl-1H-pyrazol-4-yl)amino)pyrimidin-4-yl)amino)phenyl)acrylamide]
7.00 to 8.00	C=CC(=O)Nc1cccc(N(C)c2nc(Nc3cnn(C4CCN(C)CC4)c3)ncc2Cl)c1 [Compound I-72, N-(3-((5-chloro-2-((1-(1-methylpiperidin-4-yl)-1H-pyrazol-4-yl)amino)pyrimidin-4-yl)(methyl)amino)phenyl)acrylamide]
7.00 to 8.00	C=CC(=O)Nc1cccc(Oc2nc(Nc3cnn(C4CCN(C)CC4)c3)ncc2Cl)c1 [Compound I-77, N-(3-((5-chloro-2-((1-(1-methylpiperidin-4-yl)-1H-pyrazol-4-yl)amino)pyrimidin-4-yl)oxy)phenyl)acrylamide]
7.00 to 8.00	C=CC(=O)Nc1cc(Nc2nc(Nc3cnn(C)c3)ncc2Cl)ccc1F [Compound I-66, N-(5-((5-chloro-2-((1-methyl-1H-pyrazol-4-yl)amino)pyrimidin-4-yl)amino)-2-fluorophenyl)acrylamide]
> 8.00	C=CC(=O)Nc1cccc(Nc2nc(Nc3cnn(C)c3)ncc2Cl)c1 [Compound I-19, N-(3-((5-chloro-2-((1-methyl-1H-pyrazol-4-yl)amino)pyrimidin-4-yl)amino)phenyl)acrylamide]
< 7.00	C=CC(=O)Nc1cccc(Nc2nc(Nc3cnn(C)c3C)ncc2Cl)c1 [Compound I-23, N-(3-((5-chloro-2-((1,5-dimethyl-1H-pyrazol-4-yl)amino)pyrimidin-4-yl)amino)phenyl)acrylamide]
> 8.00	C=CC(=O)Nc1cccc(Oc2nc(Nc3cnn(C)c3)ncc2Cl)c1 [Compound I-85, N-(3-((5-chloro-2-((1-methyl-1H-pyrazol-4-yl)amino)pyrimidin-4-yl)oxy)phenyl)acrylamide]
7.00 to 8.00	C=CC(=O)Nc1cccc(Nc2nc(Nc3cnn(C)c3)ncc2Cl)n1 [Compound I-75, N-(6-((5-chloro-2-((1-methyl-1H-pyrazol-4-yl)amino)pyrimidin-4-yl)amino)pyridin-2-yl)acrylamide]

Further lines, the compound ahead of its results:

Structure (SMILES)	pIC50
C=CC(=O)NC1CCCC(Nc2nc(Nc3cnn(C)c3)ncc2C)C1 (stereo not shown) [Compound I-100, N-(3-((5-methyl-2-((1-methyl-1H-pyrazol-4-yl)amino)pyrimidin-4-yl)amino)cyclohexyl)acrylamide]	< 7.00
C=CC(=O)Nc1cccc(Nc2nc(Nc3ncc(N4CCN(C)CC4)s3)ncc2Cl)c1 [Compound I-40, N-(3-((5-chloro-2-((5-(4-methylpiperazin-1-yl)thiazol-2-yl)amino)pyrimidin-4-yl)amino)phenyl)acrylamide]	7.00 to 8.00
Cn1cc(Nc2ncc(Cl)c(Nc3cccc(N4C(=O)C=CC4=O)c3)n2)cn1 [Compound I-63, 1-(3-((5-chloro-2-((1-methyl-1H-pyrazol-4-yl)amino)pyrimidin-4-yl)amino)phenyl)-1H-pyrrole-2,5-dione]	< 7.00
C=CC(=O)Nc1cccc(Nc2nc(Nc3cnn(C4CCN(C)CC4)c3)ncc2F)c1 [Compound I-18, N-(3-((5-fluoro-2-((1-(1-methylpiperidin-4-yl)-1H-pyrazol-4-yl)amino)pyrimidin-4-yl)amino)phenyl)acrylamide]	7.00 to 8.00
C=CC(=O)Nc1cccc(Nc2nc(Nc3nnc(N4CCN(C)CC4)s3)ncc2Cl)c1 [Compound I-41, N-(3-((5-chloro-2-((5-(4-methylpiperazin-1-yl)-1,3,4-thiadiazol-2-yl)amino)pyrimidin-4-yl)amino)phenyl)acrylamide]	7.00 to 8.00
CN1CCC(n2cc(Nc3ncc(Cl)c(Nc4cccc(NC(=O)C=C5CCC5)c4)n3)cn2)CC1 [Compound I-29, N-(3-((5-chloro-2-((1-(1-methylpiperidin-4-yl)-1H-pyrazol-4-yl)amino)pyrimidin-4-yl)amino)phenyl)-2-cyclobutylideneacetamide]	< 7.00
C=CC(=O)N1CCCC(Nc2nc(Nc3cnn(C)c3)ncc2Cl)C1 (single isomer, unassigned) [II-2 (Enantiomer 2), 1-(3-((5-chloro-2-((1-methyl-1H-pyrazol-4-yl)amino)pyrimidin-4-yl)amino)piperidin-1-yl)prop-2-en-1-one]	< 7.00
C=CC(=O)Nc1ccc(F)c(Nc2nc(Nc3onc(C)c3C)ncc2Cl)c1 [Compound I-119, N-(3-((5-chloro-2-((3,4-dimethylisoxazol-5-yl)amino)pyrimidin-4-yl)amino)-4-fluorophenyl)acrylamide]	< 7.00
C=CC(=O)Nc1cccc(Nc2nc(Nc3cnn(C4CCNCC4)c3)ncc2Cl)c1 [Compound I-62, N-(3-((5-chloro-2-((1-(piperidin-4-yl)-1H-pyrazol-4-yl)amino)pyrimidin-4-yl)amino)phenyl)acrylamide trifluoroacetate]	> 8.00
C=CC(=O)Nc1cccc(Nc2nc(Nc3cc(CN4CCOCC4)n(C)n3)ncc2Cl)c1 [Compound I-46, N-(3-((5-chloro-2-((1-methyl-5-(morpholinomethyl)-1H-pyrazol-3-yl)amino)pyrimidin-4-yl)amino)phenyl)acrylamide]	< 7.00
C=CC(=O)Nc1ccc(F)c(Nc2nc(Nc3ncc(Cl)s3)ncc2Cl)c1 [Compound I-120, N-(3-((5-chloro-2-((5-chlorothiazol-2-yl)amino)pyrimidin-4-yl)amino)-4-fluorophenyl)acrylamide]	< 7.00
C=CC(=O)Nc1cccc(Nc2nc(Nc3cc(C)no3)ncc2Cl)c1 [Compound I-125, N-(3-((5-chloro-2-((3-methylisoxazol-5-yl)amino)pyrimidin-4-yl)amino)phenyl)acrylamide]	7.00 to 8.00
C=CC(=O)N1CCCC(Nc2nc(Nc3cnn(C)c3)ncc2Cl)C1 (single isomer, unassigned) [II-1 (Enantiomer 1), 1-(3-((5-chloro-2-((1-methyl-1H-pyrazol-4-yl)amino)pyrimidin-4-yl)amino)piperidin-1-yl)prop-2-en-1-one]	< 7.00
C=CC(=O)Nc1cccc(Nc2nc(Nc3cn(CCOC)nc3C)ncc2Cl)c1 [Compound I-2, N-(3-((5-chloro-2-((1-(2-methoxyethyl)-3-methyl-1H-pyrazol-4-yl)amino)pyrimidin-4-yl)amino)phenyl)acrylamide]	< 7.00
CN1CCC(n2cc(Nc3ncc(Cl)c(Nc4ccc(F)c(NC(=O)C=C5CCCCC5)c4)n3)cn2)CC1 [Compound I-27, N-(5-((5-chloro-2-((1-(1-methylpiperidin-4-yl)-1H-pyrazol-4-yl)amino)pyrimidin-4-yl)amino)-2-fluorophenyl)-2-cyclohexylideneacetamide]	< 7.00
C=CC(=O)Nc1cccc(Nc2nc(Nc3cnn(C4CCOCC4)c3)ncc2Cl)c1 [Compound I-45, N-(3-((5-chloro-2-((1-(tetrahydro-2H-pyran-4-yl)-1H-pyrazol-4-yl)amino)pyrimidin-4-yl)amino)phenyl)acrylamide]	7.00 to 8.00
C=CC(=O)NC1CCCC(Nc2nc(Nc3cn(C)nc3Cl)ncc2Cl)C1 (stereo not shown) [Compound I-95, N-(3-((5-chloro-2-((3-chloro-1-methyl-1H-pyrazol-4-yl)amino)pyrimidin-4-yl)amino)cyclohexyl)acrylamide]	7.00 to 8.00
C=CC(=O)Nc1ccc(F)c(Nc2nc(Nc3cn(C)nc3C)ncc2Cl)c1 (single isomer, unassigned) [Compound I-70, N-(3-((5-chloro-2-((1,3-dimethyl-1H-pyrazol-4-yl)amino)pyrimidin-4-yl)amino)-4-fluorophenyl)acrylamide]	> 8.00
